Reference: ChEMBL document CHEMBL1201862, “PubChem BioAssay data set” (2004)
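Briefly, cells in 96-well plates were exposed to five compound concentrations for 48 h, and endpoints were estimated by linear interpolation. Here, GI50 denotes the concentration required for 50% inhibition of growth.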 Activity calls are given as the source filed them. Cut-off read from the data, not from the text of the source: active = GI50 up to about 1.1 µM and inactive = higher.

Experiments:
Assay in all cases: NCI tumour cell line growth inhibition, 48 h
786-0 = test system: 786-0
A498 = test system: A498
A549 = test system: A549
ACHN = test system: ACHN
CAKI-1 = test system: CAKI-1
CCRF-CEM = test system: CCRF-CEM
COLO 205 = test system: COLO 205
DLD-1 = test system: DLD-1
DMS-273 = test system: DMS-273
EKVX = test system: EKVX
HCC 2998 = test system: HCC 2998
HCT-116 = test system: HCT-116
HCT-15 = test system: HCT-15
HL-60 = test system: HL-60
HOP-18 = test system: HOP-18
HOP-62 = test system: HOP-62
HOP-92 = test system: HOP-92
HT-29 = test system: HT-29
IGROV-1 = test system: IGROV-1
K562 = test system: K562
KM-20L2 = test system: KM-20L2
KM12 = test system: KM12
LOX IMVI = test system: LOX IMVI
LXFL 529 = test system: LXFL 529
M14 = test system: M14
M19-MEL = test system: M19-MEL
MOLT-4 = test system: MOLT-4
Malme-3M = test system: Malme-3M
NCI-H226 = test system: NCI-H226
NCI-H23 = test system: NCI-H23
NCI-H460 = test system: NCI-H460
OVCAR-3 = test system: OVCAR-3
OVCAR-4 = test system: OVCAR-4
OVCAR-5 = test system: OVCAR-5
OVCAR-8 = test system: OVCAR-8
RPMI-8226 = test system: RPMI-8226
RXF 393 = test system: RXF 393
RXF 631 = test system: RXF 631
SF-295 = test system: SF-295
SF-539 = test system: SF-539
SK-MEL-2 = test system: SK-MEL-2
SK-MEL-5 = test system: SK-MEL-5
SK-OV-3 = test system: SK-OV-3
SN12C = test system: SN12C
SNB-75 = test system: SNB-75
SNB-78 = test system: SNB-78
SR = test system: SR
SW-620 = test system: SW-620
TK-10 = test system: TK-10
U-251 = test system: U-251
UACC-257 = test system: UACC-257
UACC-62 = test system: UACC-62
UO-31 = test system: UO-31
XF498 = test system: XF498
DMS-114 = test system: DMS-114
NCI-H522 = test system: NCI-H522
SF-268 = test system: SF-268
SK-MEL-28 = test system: SK-MEL-28
SNB-19 = test system: SNB-19
MDA-N = test system: MDA-N

Compound: C/C(=N\NC(N)=S)c1ccc(C)cc1C
- GI50 (786-0): > 100 µM (inactive)
- GI50 (A498): > 100 µM (inactive)
- GI50 (A549): 53.5 µM (inactive)
- GI50 (ACHN): > 100 µM (inactive)
- GI50 (CAKI-1): > 100 µM (inactive)
- GI50 (CCRF-CEM): > 100 µM (inactive)
- GI50 (COLO 205): 55.8 µM (inactive)
- GI50 (DLD-1): 56.8 µM (inactive)
- GI50 (DMS-273): > 100 µM (inactive)
- GI50 (EKVX): 8.41 µM (inactive)
- GI50 (HCC 2998): > 100 µM (inactive)
- GI50 (HCT-116): > 100 µM (inactive)
- GI50 (HCT-15): > 100 µM
- GI50 (HL-60): 36 µM (inactive)
- GI50 (HOP-18): > 100 µM (inactive)
- GI50 (HOP-62): > 100 µM (inactive)
- GI50 (HOP-92): > 100 µM (inactive)
- GI50 (HT-29): 28.6 µM (inactive)
- GI50 (IGROV-1): 48.8 µM (inactive)
- GI50 (K562): 81.5 µM (inactive)
- GI50 (KM-20L2): > 100 µM (inactive)
- GI50 (KM12): 60.8 µM (inactive)
- GI50 (LOX IMVI): > 100 µM (inactive)
- GI50 (LXFL 529): 39.1 µM (inactive)
- GI50 (M14): > 100 µM (inactive)
- GI50 (M19-MEL): 36.9 µM (inactive)
- GI50 (MOLT-4): 41.8 µM (inactive)
- GI50 (Malme-3M): > 100 µM (inactive)
- GI50 (NCI-H226): > 100 µM (inactive)
- GI50 (NCI-H23): > 100 µM (inactive)
- GI50 (NCI-H460): 64.7 µM (inactive)
- GI50 (OVCAR-3): 75.7 µM (inactive)
- GI50 (OVCAR-4): 84.5 µM (inactive)
- GI50 (OVCAR-5): 27 µM (inactive)
- GI50 (OVCAR-8): > 100 µM (inactive)
- GI50 (RPMI-8226): > 100 µM (inactive)
- GI50 (RXF 393): 8.2 µM (inactive)
- GI50 (RXF 631): 91 µM (inactive)
- GI50 (SF-295): > 100 µM (inactive)
- GI50 (SF-539): > 100 µM (inactive)
- GI50 (SK-MEL-2): 37.2 µM (inactive)
- GI50 (SK-MEL-5): 21.7 µM (inactive)
- GI50 (SK-OV-3): > 100 µM (inactive)
- GI50 (SN12C): > 100 µM (inactive)
- GI50 (SNB-75): 47.5 µM (inactive)
- GI50 (SNB-78): > 100 µM (inactive)
- GI50 (SR): < 0.01 µM (active)
- GI50 (SW-620): > 100 µM (inactive)
- GI50 (TK-10): > 100 µM (inactive)
- GI50 (U-251): > 100 µM (inactive)
- GI50 (UACC-257): 38.4 µM (inactive)
- GI50 (UACC-62): 38.9 µM (inactive)
- GI50 (UO-31): 82.6 µM (inactive)
- GI50 (XF498): 43.1 µM (inactive)

Compound: N#CC12C3C4CC5C6C4C1C6C(O)(C53)N2Cc1ccccc1 (stereo not given)
- GI50 (786-0): > 100 µM (inactive)
- GI50 (A498): > 100 µM (inactive)
- GI50 (A549): > 100 µM (inactive)
- GI50 (ACHN): > 100 µM (inactive)
- GI50 (CAKI-1): > 100 µM (inactive)
- GI50 (CCRF-CEM): > 100 µM (inactive)
- GI50 (COLO 205): > 100 µM (inactive)
- GI50 (DLD-1): > 100 µM (inactive)
- GI50 (DMS-114): > 100 µM (inactive)
- GI50 (DMS-273): > 100 µM (inactive)
- GI50 (EKVX): > 100 µM (inactive)
- GI50 (HCC 2998): > 100 µM (inactive)
- GI50 (HCT-116): > 100 µM (inactive)
- GI50 (HCT-15): > 100 µM
- GI50 (HL-60): > 100 µM (inactive)
- GI50 (HOP-18): > 100 µM (inactive)
- GI50 (HOP-62): > 100 µM (inactive)
- GI50 (HOP-92): > 100 µM (inactive)
- GI50 (HT-29): > 100 µM (inactive)
- GI50 (IGROV-1): > 100 µM (inactive)
- GI50 (K562): > 100 µM (inactive)
- GI50 (KM-20L2): > 100 µM (inactive)
- GI50 (KM12): > 100 µM (inactive)
- GI50 (LOX IMVI): > 100 µM (inactive)
- GI50 (LXFL 529): > 100 µM (inactive)
- GI50 (M14): > 100 µM (inactive)
- GI50 (MOLT-4): > 100 µM (inactive)
- GI50 (Malme-3M): > 100 µM (inactive)
- GI50 (NCI-H226): > 100 µM (inactive)
- GI50 (NCI-H23): > 100 µM (inactive)
- GI50 (NCI-H460): > 100 µM (inactive)
- GI50 (NCI-H522): > 100 µM (inactive)
- GI50 (OVCAR-3): > 100 µM (inactive)
- GI50 (OVCAR-4): > 100 µM (inactive)
- GI50 (OVCAR-5): > 100 µM (inactive)
- GI50 (OVCAR-8): > 100 µM (inactive)
- GI50 (RPMI-8226): > 100 µM (inactive)
- GI50 (RXF 393): > 100 µM (inactive)
- GI50 (RXF 631): > 100 µM (inactive)
- GI50 (SF-268): > 100 µM (inactive)
- GI50 (SF-295): > 100 µM (inactive)
- GI50 (SF-539): > 100 µM (inactive)
- GI50 (SK-MEL-28): > 100 µM (inactive)
- GI50 (SK-MEL-2): > 100 µM (inactive)
- GI50 (SK-MEL-5): > 100 µM (inactive)
- GI50 (SK-OV-3): > 100 µM (inactive)
- GI50 (SN12C): > 100 µM (inactive)
- GI50 (SNB-19): > 100 µM (inactive)
- GI50 (SNB-75): > 100 µM (inactive)
- GI50 (SR): > 100 µM (inactive)
- GI50 (SW-620): > 100 µM (inactive)
- GI50 (TK-10): > 100 µM (inactive)
- GI50 (U-251): > 100 µM (inactive)
- GI50 (UACC-257): > 100 µM (inactive)
- GI50 (UACC-62): > 100 µM (inactive)
- GI50 (UO-31): > 100 µM (inactive)
- GI50 (XF498): > 100 µM (inactive)

Compound: O=c1[nH]c2ccccc2n1C1CCN(CCCC(c2ccc(F)cc2)c2ccc(F)cc2)CC1 [PIMOZIDE]
- GI50 (CCRF-CEM): 5.51 µM (inactive)
- GI50 (COLO 205): 1.69 µM (inactive)
- GI50 (DLD-1): 5.74 µM (inactive)
- GI50 (DMS-114): 2.22 µM (inactive)
- GI50 (DMS-273): 3.45 µM (inactive)
- GI50 (HCC 2998): 1.9 µM (inactive)
- GI50 (HCT-15): 3.1 µM
- GI50 (HL-60): 2.37 µM (inactive)
- GI50 (HOP-18): 15.6 µM (inactive)
- GI50 (HOP-62): 10.7 µM (inactive)
- GI50 (HOP-92): 3.9 µM (inactive)
- GI50 (HT-29): 2.55 µM (inactive)
- GI50 (IGROV-1): 13.9 µM (inactive)
- GI50 (K562): 2.88 µM (inactive)
- GI50 (KM-20L2): 2.01 µM (inactive)
- GI50 (LXFL 529): 3.73 µM (inactive)
- GI50 (M14): 2.7 µM (inactive)
- GI50 (M19-MEL): 3.81 µM (inactive)
- GI50 (MDA-N): 9.77 µM (inactive)
- GI50 (MOLT-4): 3.67 µM (inactive)
- GI50 (Malme-3M): 2.05 µM (inactive)
- GI50 (NCI-H522): 2.81 µM (inactive)
- GI50 (OVCAR-4): 8.59 µM (inactive)
- GI50 (OVCAR-5): 8 µM (inactive)
- GI50 (SF-268): 12.1 µM (inactive)
- GI50 (SF-295): 4.02 µM (inactive)
- GI50 (SK-MEL-28): 2.15 µM (inactive)
- GI50 (SK-OV-3): 12.8 µM (inactive)
- GI50 (SN12C): 12.2 µM (inactive)
- GI50 (SNB-19): 14.5 µM (inactive)
- GI50 (SNB-75): 10.8 µM (inactive)
- GI50 (SNB-78): 15.1 µM (inactive)
- GI50 (SR): 2.5 µM (inactive)
- GI50 (XF498): 4.17 µM (inactive)
